Results: PMC7179198, “Chiral Pyridine-3,5-bis- (L-phenylalaninyl-L-leucinyl) Schiff Base Peptides as Potential Anticancer Agents: Design, Synthesis, and Molecular Docking Studies Targeting Lactate Dehydrogenase-A” (Molecules, 2020)
One block for each molecule: values may come before it.

What was measured:
p53 ubiquitination [1] = test: In vivo p53 ubiquitination inhibition; conditions: for IC50: read-out: in vivo IC50, suppression of p53 ubiquitination
Excerpt: (§1) Several cancer prevention drugs depend mainly on the ubiquitination activities against p53 as a suppressor protein. When E3 ubiquitin protein ligase HDM2 binds to p53, the resulting mechanism is the inhibition of its ability as a transcription activator. Accordingly, the regulative mechanism is acting negatively. Therefore, blocking the p53 binding site on HDM2 provides for a better possible antitumorigenic molecule. Currently, murine double minute 2 (MDM2) is considered as the regulator of choice when it comes to investigatingp53 inhibition.
(§2) Different prepared derivatives 4–6 were evaluated for their inhibitory potential against p53 ubiquitination according to the previously reported procedure.

[2] = system: breast cancer cells (MCF-7); test: In vitro cytotoxic activity against MCF-7 cancer cells (MTT); type: cell-based, human; conditions: for IC50: MCF-7, MTT
Excerpt: (§3) Following the synthesis of the new bis-dipeptide derivatives, we evaluated the anticancer potentials of these derivatives in vitro against breast cancer cells (MCF-7) as well as normal non tumorigenic MCF-10A cells. The obtained results were expressed as IC50 values in µM and were also compared for both cell lines with positive reference controls; that is cisplatin and milaplatin. Generally, it can be seen that our newly synthesized bis-dipeptides have potential anticancer activities against MCF-7 cells.
Human breast cancer (MCF-7) cells, obtained from Sigma-Aldrich Chemie GmbH, Taufkirchen, Germany, were propagated in RPMI-1640 supplemented with 10% heat inactivated FBS, 2 mM L-glutamine, and 1% standard antibiotic solution. Cells were incubated in a 5% CO2humidified incubator at 37 °C and passaged bi-weekly. The in vitro anti-proliferative activity of the newly synthesized derivatives was assayed using the standard MTT technique.
(§4) The results were expressed as IC50. Experiments were repeated at least in triplicate, to obtain good reproducibility between replicate wells with standard errors below 10%. Furthermore, the cytotoxic effects of the prepared derivatives were evaluated against normal nonmalignant cells, non-tumorigenic MCF-10A, in order to find out if the synthesized derivatives have toxicity against normal cells. Additionally, the results were compared with reference compounds (cisplatin and milaplatin) as positive controls.

MCF-7 xenografts = test: In vivo human breast cancer xenograft; design: species or system nude mice; conditions: MCF-7 xenograft, eight days of treatment
Excerpt: In this section, we developed a breast cancer animal xenograft model for the evaluation of thein vivo anticancer potential of our newly prepared compounds. […] After wards, the noticeable effects were more or less constant up to 14 days of treatment. […] Our results are in good agreement with those previously published on the in vivo anticancer potential of Schiff bases owing to apoptosis induction.
The breast cancer xenograft model protocol was approved by the Institutional Animal Use and Care Committee of the University of Alabama at Birmingham (50-01-05-08B). Female athymic pathogen-free nude mice (nu/nu, 4–6 weeks) were used. Firstly, MCF-7 xenografts were initiated by implanting pellets slowly releasing estrogen for two months (1.7mg 17β-estradiol/pellet) subcutaneously in the female nude mice. After 24 h, confluent MCF-7 cells were harvested, washed two times with serum-free medium, re-suspended, and injected subcutaneously (s.c.) (5 × 10^6 cells, total volume 0.2 mL) into the left inguinal area of the mice. Caliper measurement was used to measure tumor growth in two perpendicular diameters of the implant after 48 h, and its volume was determined. Mice grafted with MCF-7 were divided into different groups (7–10 mice/group). Untreated mice received the solvent only. Treated groups received different prepared derivatives as previously described.

p53 ubiquitination [3] = test: In vitro p53 ubiquitination inhibition; type: biochemical; conditions: for IC50: read-out: in vitro IC50, suppression of p53 ubiquitination
Excerpt: as §1, §2

[4] = system: non-tumorigenic MCF-10A cells; test: Cytotoxicity against normal non-tumorigenic MCF-10A cells (MTT); type: cell-based; conditions: MCF-10A vs MCF-7
Excerpt: as §3
The fact that normal cells are usually less affected by possible anticancer candidates may be attributed to the fact that, upon cancer initiation and development, cancer cells overcome normal growth regulation pathways present in normal cells, and thusthey tend to be affected by other different regulatory growth pathways, which are not evident in the case of normal cells.
as §4

[5] = target: T1, recombinant human LDHA protein (Homo sapiens, UniProt P00338); test: LDHA inhibition assay (colorimetric NADH kit); type: biochemical; conditions: recombinant human LDHA
T1 construct: purchased Abcam ab93699
Experimental: The newly synthesized compounds 4–6 were evaluated for their ability to inhibit LDHA in comparison with galloflavin as a known isoform nonselective LDHA inhibitor [44, 45]. The choice of galloflavin as a reference was based on the fact that it is potent anticancer agent and commercially available.
Lactate dehydrogenase assay kit (Abcam, ab102526) and recombinant human LDHA protein (Abcam, ab93699) were used to assess the inhibitory effect of the tested compounds. First, we generated an NADH standard curve for colorimetric detection by measuring the OD (450 nm) at different molar amounts of NADH. The linear regression equation of the curve was derivatized in Graphpad Prism. Tested compounds were dissolved in DMSO and their inhibitory activity was assessed at 140 and 300 μM strength. Galloflavin (Sigma, SML0776) at the same molar concentration was used as a known LDH inhibitor. The master reaction mix composed of LDH assay buffer and 10 ng human LDHA […] per reaction was prepared. Tested compounds were added and the final reaction volume was adjusted to 50 μL. Absorbance at 450 nm was taken after 2–3 min (T-initial) and continued every minute for 118 min (T-final). The change in measurement over time (delta A450) was calculated as T-final minus T-initial. The amount of NADH generated by the assay between T-initial and T-final was deduced by comparing the A450 of each sample to the standard NADH standard curve. LDHA activity was calculated in milliunits per mL as the amount of NADH generated by the assay / (reaction time in minutes (118) x reaction volume in mL ([…]).

Molecule: milaplatin [reference compound]
- IC50 [2]: 18.43 ± 0.13 µM

Molecule: CC(C)CC(NC(=O)C(Cc1ccccc1)NC(=O)c1cncc(C(=O)NC(Cc2ccccc2)C(=O)NC(CC(C)C)C(=O)NN=C2CCCC2)c1)C(=O)NN=C1CCCC1 (centres unmarked) [3a, N^3,N^5-Bis{1-[(1-(2-cyclopentylidenehydrazinyl)-4-methyl-1-oxopentan-2-yl]amino)-1-oxo-3-phenylpropan-2-yl}pyridine-3,5-dicarboxamide]
- melting point: 232 to 234 °C

Molecule: CC(C)CC(NC(=O)C(Cc1ccccc1)NC(=O)c1cncc(C(=O)NC(Cc2ccccc2)C(=O)NC(CC(C)C)C(=O)NN=C2CCCCC2)c1)C(=O)NN=C1CCCCC1 (centres unmarked) [3b, N^3,N^5-Bis{1-[(1-(2-cyclohexylidenehydrazinyl)-4-methyl-1-oxopentan-2-yl)amino]-1-oxo-3-phenylpropan-2-yl}pyridine-3,5-dicarboxamide]
- melting point: 198 to 200 °C

Molecule: CC(C)CC(NC(=O)C(Cc1ccccc1)NC(=O)c1cncc(C(=O)NC(Cc2ccccc2)C(=O)NC(CC(C)C)C(=O)NN=C2CCCCCCC2)c1)C(=O)NN=C1CCCCCCC1 (centres unmarked) [3d, N^3,N^5-Bis{1-[(1-(2-cyclooctylidenehydrazinyl)-4-methyl-1-oxopentan-2-yl)amino]-1-oxo-3-phenylpropan-2-yl}pyridine-3,5-dicarboxamide]
- melting point: 242 to 244 °C

Molecule: CC(=NNC(=O)C(CC(C)C)NC(=O)C(Cc1ccccc1)NC(=O)c1cncc(C(=O)NC(Cc2ccccc2)C(=O)NC(CC(C)C)C(=O)NN=C(C)c2cccnc2)c1)c1cccnc1 (centres unmarked) [4b, N^3,N^5-Bis{1-[(4-methyl-1-oxo-1-(2-(1-(pyridin-3-yl)ethylidene)hydrazinyl)pentan-2-yl)-amino]-1-oxo-3-phenylpropan-2-yl}pyridine-3,5-dicarboxamide]
- IC50 ([2]; Homo sapiens, MCF7): 8.12 ± 0.14 µM
- more active than cisplatin against MCF-7 ([2]; MCF-7, vs cisplatin): about 39.1%
- more active than milaplatin against MCF-7 ([2]; MCF-7, vs milaplatin): ~55.9%
- fold higher IC50 against MCF-10A than MCF-7 [4]: about 142.7 fold

Molecule: CC(C)CC(NC(=O)C(Cc1ccccc1)NC(=O)c1cncc(C(=O)NC(Cc2ccccc2)C(=O)NC(CC(C)C)C(=O)NN=C2CCCCCC2)c1)C(=O)NN=C1CCCCCC1 (centres unmarked) [3c, N^3,N^5-Bis{1-[(1-(2-cycloheptylidenehydrazinyl)-4-methyl-1-oxopentan-2-yl)amino]-1-oxo-3-phenylpropan-2-yl}pyridine-3,5-dicarboxamide]
- melting point: 221 to 223 °C

Molecule: O=c1oc2c(cc1O)oc(=O)c1cc(O)c(O)c(O)c12 [galloflavin, reference compound]
- IC50 [5]: 161.1 ± 0.32 µM

Molecule: N^3,N^5-Bis{1-[(1-(2-(1-(4-methoxyphenyl)ethylidene)hydrazinyl)-4-methyl-1-oxopentan-2-yl)-amino]-1-oxo-3-phenylpropan-2-yl}pyridine-3,5-dicarboxamide [5a]
- IC50 [2]: 17.6 ± 0.27 µM
- IC50 (p53 ubiquitination [3]): 44.33 ± 0.34 µM
- fold higher IC50 against MCF-10A than MCF-7 [4]: ~145.9 fold

Molecule: N.N.[Cl][Pt][Cl] [cisplatin, reference compound]
- IC50 [2]: 13.34 ± 0.11 µM

Molecule: CC(=NNC(=O)C(CC(C)C)NC(=O)C(Cc1ccccc1)NC(=O)c1cncc(C(=O)NC(Cc2ccccc2)C(=O)NC(CC(C)C)C(=O)NN=C(C)c2ccc([N+](=O)[O-])cc2)c1)c1ccc([N+](=O)[O-])cc1 (centres unmarked) (hydrate or solvate) [5e, N^3,N^5-Bis{1-[(4-methyl-1-(2-(1-(4-nitrophenyl)ethylidene)hydrazinyl)-1-oxopentan-2-yl)-amino]-1-oxo-3-phenylpropan-2-yl}pyridine-3,5-dicarboxamide]
- melting point: 256 to 258 °C

Continued, in another order:

- IC50 (p53 ubiquitination [1]): 0.31 ± 0.001 µM
- melting point: 205 to 207 °C
Molecule: CC(C)CC(NC(=O)C(Cc1ccccc1)NC(=O)c1cncc(C(=O)NC(Cc2ccccc2)C(=O)NC(CC(C)C)C(=O)NN=Cc2ccco2)c1)C(=O)NN=Cc1ccco1 (centres unmarked) [6a, N^3,N^5-bis{1-[(1-(2-(furan-2-ylmethylene)hydrazinyl)-4-methyl-1-oxopentan-2-yl)amino]-1-oxo-3-phenylpropan-2-yl}pyridine-3,5-dicarboxamide]

- IC50 (p53 ubiquitination [1]): 0.12 ± 0.0011 µM
- IC50 (p53 ubiquitination [3]): 21.34 ± 0.13 µM
Molecule: CC(=NNC(=O)C(CC(C)C)NC(=O)C(Cc1ccccc1)NC(=O)c1cncc(C(=O)NC(Cc2ccccc2)C(=O)NC(CC(C)C)C(=O)NN=C(C)c2ccccn2)c1)c1ccccn1 (centres unmarked) [4a, N^3,N^5-Bis{1-[(4-methyl-1-oxo-1-(2-(1-(pyridin-2-yl)ethylidene)hydrazinyl)pentan-2-yl)amino]-1-oxo-3-phenylpropan-2-yl}pyridine-3,5-dicarboxamide]
- fold higher inhibitory effect than positive control (diphenyl imidazole), in vivo p53 ubiquitination (p53 ubiquitination [1]; in vivo, vs diphenyl imidazole): ~15.7 fold
- decrease in tumor growth (MCF-7 xenografts): 81.3%
- fold higher inhibitory effect than positive control (diphenyl imidazole), in vitro p53 ubiquitination (p53 ubiquitination [3]; vs diphenyl imidazole): about 12.2 fold

- melting point: 208 to 210 °C
Molecule: CC(=NNC(=O)C(CC(C)C)NC(=O)C(Cc1ccccc1)NC(=O)c1cncc(C(=O)NC(Cc2ccccc2)C(=O)NC(CC(C)C)C(=O)NN=C(C)c2cccnc2)c1)c1cccnc1 (centres unmarked) (hydrate or solvate) [4b, N^3,N^5-Bis{1-[(4-methyl-1-oxo-1-(2-(1-(pyridin-3-yl)ethylidene)hydrazinyl)pentan-2-yl)-amino]-1-oxo-3-phenylpropan-2-yl}pyridine-3,5-dicarboxamide]

- melting point: 216 to 218 °C
Molecule: CC(=NNC(=O)C(CC(C)C)NC(=O)C(Cc1ccccc1)NC(=O)c1cncc(C(=O)NC(Cc2ccccc2)C(=O)NC(CC(C)C)C(=O)NN=C(C)c2ccccn2)c1)c1ccccn1 (centres unmarked) (hydrate or solvate) [4a, N^3,N^5-Bis{1-[(4-methyl-1-oxo-1-(2-(1-(pyridin-2-yl)ethylidene)hydrazinyl)pentan-2-yl)amino]-1-oxo-3-phenylpropan-2-yl}pyridine-3,5-dicarboxamide]

- melting point: 196 to 198 °C
Molecule: CC(=NNC(=O)C(CC(C)C)NC(=O)C(Cc1ccccc1)NC(=O)c1cncc(C(=O)NC(Cc2ccccc2)C(=O)NC(CC(C)C)C(=O)NN=C(C)c2ccncc2)c1)c1ccncc1 (centres unmarked) (hydrate or solvate) [4c, N^3,N^5-Bis{1-[(4-methyl-1-oxo-1-(2-(1-(pyridin-4-yl)ethylidene)hydrazinyl)pentan-2-yl)-amino]-1-oxo-3-phenylpropan-2-yl}pyridine-3,5-dicarboxamide]

- melting point: 218 to 220 °C
Molecule: CC(C)CC(NC(=O)C(Cc1ccccc1)NC(=O)c1cncc(C(=O)NC(Cc2ccccc2)C(=O)NC(CC(C)C)C(=O)NN=Cc2cccs2)c1)C(=O)NN=Cc1cccs1 (centres unmarked) [6b, N^3,N^5-bis{1-[(4-methyl-1-oxo-1-(2-(thiophen-2-ylmethylene)hydrazinyl)pentan-2-yl)amino]-1-oxo-3-phenylpropan-2-yl}pyridine-3,5-dicarboxamide]
